IC50 data for 45 compounds are collected here from patent publication US10752612B2, “PLK4 inhibitors” (LUDWIG INSTITUTE FOR CANCER RESEARCH LTD, priority 2015, dated 2020).

By IC50 is commonly meant the point on the concentration scale where inhibition reaches its midpoint. Read a low IC50 as inhibition by little substance.

In this assay the target is T1, human Plk4 kinase domain (aa 2-275) (Homo sapiens, UniProt O00444).
T1 construct: purified 6×His-tagged human Plk4 kinase domain (aa 2-275); 6xHis; made in house; host or cells: E. coli
T1 sequence (O00444 2-275): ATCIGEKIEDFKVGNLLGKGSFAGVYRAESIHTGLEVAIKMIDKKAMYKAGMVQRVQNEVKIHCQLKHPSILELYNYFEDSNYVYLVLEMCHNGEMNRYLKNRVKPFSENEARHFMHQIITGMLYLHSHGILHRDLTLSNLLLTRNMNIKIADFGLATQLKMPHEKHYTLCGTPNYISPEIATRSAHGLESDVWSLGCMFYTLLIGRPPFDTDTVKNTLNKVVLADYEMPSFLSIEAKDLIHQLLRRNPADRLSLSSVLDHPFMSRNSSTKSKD
Nature of the assay: Plk4 kinase assay (ADP-Glo). The assay is classed as biochemical. Particulars: Table 1. The essentials: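 Enzyme at 2.5-10 nM final, pH 8.0, reacted 4-16 hours at 25° C; ADP generation read by ADP-Glo luminescence. Ki derived from IC50 by Cheng-Prusoff or, for tight binders, Copeland formalism.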
On to `CNc1nc(Sc2ccc(NC(=O)C3CC3)cc2)nc(Nc2cc(C)[nH]n2)c1OC`, for which the IC50 was below 1000 nM. Next, `CCCOc1c(Nc2cc(C)[nH]n2)nc(Sc2ccc(NC(=O)C3CC3)cc2)nc1N(CC)CC`: 100 to 1000 nM; `CCNc1nc(Sc2ccc(NC(=O)C3CC3)cc2)nc(Nc2cc(C)[nH]n2)c1OC`: below 1000 nM; `CC(=O)Nc1ccc(Sc2nc3c(c(Nc4cc(C)[nH]n4)n2)C(C)CC3)cc1` (stereo not drawn): below 1000 nM. `Cc1cc(Nc2nc(Sc3ccc(NC(=O)C4CCCC4)cc3)nc3c2C(C)CC3)n[nH]1` (stereo not drawn) yielded an IC50 below 1000 nM. Then `COc1c(Nc2cc(C)[nH]n2)nc(Sc2ccc(NC(=O)C3CC3)cc2)nc1N1CCN(C(C)C)CC1`, with below 1000 nM; and `COc1c(Nc2cc(C)[nH]n2)nc(Sc2ccc(NC(=O)C3CC3)cc2)nc1N1CCN(C(C)=O)CC1`, with below 1000 nM. The compound `COc1c(Nc2cc(C)[nH]n2)nc(Sc2ccc(S(=O)(=O)Cc3cccc(C#N)c3F)cc2F)nc1N1CCCCC1` displayed an IC50 below 1000 nM. Next, `COc1c(Nc2cc(C)[nH]n2)nc(Sc2ccc(S(=O)(=O)Cc3cccc(C#N)c3F)cc2F)nc1N1CCN(CCN(C)C)CC1`: below 1000 nM; `COc1c(Nc2cc(C)[nH]n2)nc(Sc2ccc(S(=O)(=O)C(F)c3cccc(C#N)c3F)cc2F)nc1N1CCOCC1` (stereo not drawn): below 1000 nM. Then `COc1c(Nc2cc(C)[nH]n2)nc(Sc2ccc(S(=O)(=O)Nc3cccc([N+](=O)[O-])c3)cc2F)nc1N1CCOCC1`, with below 1000 nM; and `COc1c(Nc2cc(C)[nH]n2)nc(Sc2ccc(S(=O)(=O)Cc3cccc([N+](=O)[O-])c3F)cc2F)nc1N1CCCC[C@@H]1CO`, with below 1000 nM; and `COc1c(Nc2cc(C)[nH]n2)nc(Sc2ccc(S(=O)(=O)Cc3cccc([N+](=O)[O-])c3F)cc2F)nc1N1CCC(CCN(C)C)CC1`, with below 1000 nM. `COc1c(Nc2cc(C)[nH]n2)nc(Sc2ccc(NC(=O)Cc3cccc([N+](=O)[O-])c3F)cc2F)nc1N1CCOCC1` returned an IC50 below 1000 nM. For the compound `COc1c(Nc2cc(C)[nH]n2)nc(Sc2ccc(S(=O)(=O)C(F)c3cccc([N+](=O)[O-])c3F)cc2F)nc1N1CCC(CCN(C)C)CC1` (stereo not drawn), the IC50 was below 1000 nM.

The compound `COc1c(Nc2cc(C)[nH]n2)nc(Sc2ccc(S(=O)(=O)C(C)(C)c3cccc([N+](=O)[O-])c3F)cc2F)nc1N1CCCCC1` yielded an IC50 below 1000 nM. Next, `COc1c(Nc2cc(C)[nH]n2)nc(Sc2ccc(S(=O)(=O)C(C)(C)c3cccc([N+](=O)[O-])c3F)cc2F)nc1N1CCN(CCN(C)C)CC1`: below 1000 nM.

The compound `COc1c(Nc2cc(C)[nH]n2)nc(Sc2ccc(S(=O)(=O)C(F)c3cccc([N+](=O)[O-])c3F)cc2F)nc1N1CCOC[C@@H]1CO` (stereo partly drawn) registered an IC50 below 1000 nM. For the compound `COc1c(Nc2cc(C)[nH]n2)nc(Sc2ccc(S(=O)(=O)C(F)c3c(F)c(F)cc(F)c3F)cc2F)nc1N1CCOCC1` (stereo not drawn), the IC50 was below 1000 nM. Next, `COc1c(Nc2cc(C)[nH]n2)nc(Sc2ccc(S(=O)(=O)C(C)(C)c3c(F)c(F)cc(F)c3F)cc2F)nc1N1CCN(CCN(C)C)CC1`: below 1000 nM. Then `COc1c(Nc2cc(C)[nH]n2)nc(Sc2ccc(S(=O)(=O)C(C)(C)c3cccc([N+](=O)[O-])c3F)cc2F)nc1N1CCC(CCN(C)C)CC1`, with below 1000 nM; and `COc1c(Nc2cc(C)[nH]n2)nc(Sc2ccc(S(=O)(=O)C(C)(C)c3cccc([N+](=O)[O-])c3F)cc2F)nc1N1CCOC[C@@H]1CO`, with below 1000 nM; and `COc1c(Nc2cc(C)[nH]n2)nc(Sc2ccc(S(=O)(=O)C(C)(C)c3cccc(Cl)c3F)cc2F)nc1N1CCOCC1`, with below 1000 nM. With `COc1c(Nc2cc(C)[nH]n2)nc(Sc2ccc(S(=O)(=O)C(C)(C)c3cccc(Cl)c3F)cc2F)nc1N1CCN(CCN(C)C)CC1`, the IC50 is below 1000 nM. `COc1c(Nc2cc(C)[nH]n2)nc(Sc2ccc(S(=O)(=O)C(C)(C)c3cc(F)cc(Cl)c3F)cc2F)nc1N1CCOCC1` registered a 50% inhibitory concentration (IC50) below 1000 nM. Then `COc1c(Nc2cc(C)[nH]n2)nc(Sc2ccc(S(=O)(=O)C(C)(C)c3cccc([N+](=O)[O-])c3F)cc2F)nc1N1CCNCC1`, with below 1000 nM. Next, `COc1c(Nc2cc(C)[nH]n2)nc(Sc2ccc(S(=O)(=O)C(C)(C)c3cccc(Cl)c3F)cc2F)nc1N1CCC(CCN(C)C)CC1`: below 1000 nM; `COc1c(Nc2cc(C)[nH]n2)nc(Sc2ccc(S(=O)(=O)C(C)(C)c3cccc([N+](=O)[O-])c3F)cc2F)nc1N1CCC(CC(=O)N(C)C)CC1`: below 1000 nM.

`COc1c(Nc2cc(C)[nH]n2)nc(Sc2ccc(S(=O)(=O)C(C)(C)c3c(F)c(F)cc(F)c3F)cc2F)nc1N1CCC(N(C)C)CC1` returned an IC50 below 1000 nM. Then `COc1c(Nc2cc(C)[nH]n2)nc(Sc2ccc(S(=O)(=O)C(C)(C)c3c(F)c(F)cc(Cl)c3F)cc2F)nc1N1CCOCC1`, with below 1000 nM; and `COc1c(Nc2cc(C)[nH]n2)nc(Sc2ccc(S(=O)(=O)Cc3c(F)c(F)cc(Cl)c3F)cc2F)nc1N1CCN(CCN(C)C)CC1`, with below 1000 nM; and `COc1c(Nc2cc(C)[nH]n2)nc(Sc2ccc(S(=O)(=O)Cc3c(F)c(F)cc(Cl)c3F)cc2F)nc1N1CCC(CCN(C)C)CC1`, with below 1000 nM.

Compound `COc1c(Nc2cc(C)[nH]n2)nc(Sc2ccc(S(=O)(=O)C(C)(C)c3cccc([N+](=O)[O-])c3F)cc2F)nc1N1CCC(OC)C1` (stereo not drawn) displayed an IC50 below 1000 nM. For `COc1c(Nc2cc(C)[nH]n2)nc(Sc2ccc(S(=O)(=O)C(C)(C)c3cccc([N+](=O)[O-])c3F)cc2F)nc1N1CCN(C(=O)CN(C)C)CC1`, the IC50 is below 1000 nM.

The compound `COc1c(Nc2cc(C)[nH]n2)nc(Sc2ccc(S(=O)(=O)Cc3c(F)c(F)c(F)c(F)c3F)cc2F)nc1N1CCOCC1` displayed a half-maximal inhibitory concentration (IC50) below 1000 nM. `COc1c(Nc2cc(C)[nH]n2)nc(Sc2ccc(S(=O)(=O)C(C)(C)c3cccc([N+](=O)[O-])c3F)cc2F)nc1N1CCC(NC(C)=O)CC1` came in with an IC50 below 1000 nM. `COc1c(Nc2cc(C)[nH]n2)nc(Sc2ccc(S(=O)(=O)C(C)(C)c3cccc([N+](=O)[O-])c3F)cc2F)nc1N1CC[C@H](NC(C)=O)C1` had an IC50 below 1000 nM. As for `COc1c(Nc2cc(C)[nH]n2)nc(Sc2ccc(S(=O)(=O)C(C)(C)c3cccc([N+](=O)[O-])c3F)cc2F)nc1N1CCN(CC(=O)N(C)C)CC1`, the IC50 was below 1000 nM.

The compound `COc1c(Nc2cc(C)[nH]n2)nc(Sc2ccc(S(=O)(=O)C(C)(C)c3cccc([N+](=O)[O-])c3F)cc2F)nc1N1CC[C@H](N(C)C)C1` came in with an IC50 below 1000 nM.

For the compound `COc1c(Nc2cc(C)[nH]n2)nc(Sc2ccc(S(=O)(=O)C(C)(C)c3cccc([N+](=O)[O-])c3F)cc2F)nc1N1CC[C@@H](N(C)C)C1`, the IC50 was below 1000 nM. Next, `COc1c(Nc2cc(C)[nH]n2)nc(Sc2ccc(S(=O)(=O)C(C)(C)c3c(F)c(F)cc(F)c3F)cc2F)nc1N1CCC(NC(C)=O)CC1`: below 1000 nM; `COc1c(Nc2cc(C)[nH]n2)nc(Sc2ccc(S(=O)(=O)C(C)(C)c3c(F)c(F)cc(F)c3F)cc2F)nc1N1CC[C@H](N(C)C)C1`: below 1000 nM; `COc1c(Nc2cc(C)[nH]n2)nc(Sc2ccc(S(=O)(=O)C(C)(C)c3c(F)c(F)cc(F)c3F)cc2F)nc1N1CCC(CC(=O)N(C)C)CC1`: below 1000 nM. As to `COc1c(Nc2cc(C)[nH]n2)nc(Sc2ccc(S(=O)(=O)C(C)(C)c3c(F)c(F)cc(F)c3F)cc2F)nc1N1CC[C@@H](N(C)C)C1`, the IC50 was below 1000 nM. Next, `COc1c(Nc2cc(C)[nH]n2)nc(Sc2ccc(S(=O)(=O)C(C)(C)c3c(F)c(F)c(F)c(F)c3F)cc2F)nc1N1CCC(N(C)C)CC1`: below 1000 nM.
